Measurements reported in EPA's ToxValDB 9.5 (doi:10.2903/j.efsa.2008.140r).
Values after ≈ are worked out from the molar mass of the structure shown.

How the values were obtained:
Daphnia magna = details: chronic/long-term; duration: 21 days; reproduction
Canidae = details: chronic; duration: 1 years; oral; Dog Other; clinical signs
Colinus virginianus = details: acute; oral; mortality
Rattus norvegicus = details: for NOAEL: chronic
Typhlodromus pyri = details: not reported; other

CCN(CC)C(=O)C(C)Oc1cccc2ccccc12 (stereo unspecified) [Napropamide]
LC50 (Tagia sp.; acute, duration: 14 days, mortality): 564 mg/kg
NOEC (Tagia sp.; chronic/long-term, reproduction): 60 mg/kg
LC50 (Oncorhynchus mykiss; acute, duration: 96 hours, mortality): 6.6 µg/mL (≈ 24.3 µM)
NOEC (Oncorhynchus mykiss; chronic/long-term, duration: 28 days, growth): 1.1 mg/L
NOEC (Daphnia magna): 4.3 mg/L
NOAEL (Canidae): 50 mg/kg-day
LD50 (Colinus virginianus): > 2250 mg/kg-day
LD50 (Rattus norvegicus; acute, mortality): 4680 mg/kg-day
NOAEL (Rattus norvegicus; duration: 2 years, oral, body weight): 30 mg/kg-day
NOAEL (Rattus norvegicus; mortality): 30 mg/kg-day
LEL (Typhlodromus pyri): 4500 g/ha
